Data: ChEMBL document CHEMBL6177968, “Development of sulfamoylbenzamide-based capsid assembly modulators for hepatitis B virus capsid assembly” (Eur J Med Chem, 2025)
Activity calls are given as the source filed them. The rule behind the calls is not given here.

Experiments:
Hepatitis B virus [1] = assay: Antiviral activity against HBV in human HepG2.2.15 cells assessed as reduction in viral replication incubated for 5 days by real-time PCR analysis; type: functional, organism-based; conditions: HepG2.2.15, 120 h
[2] = Cytotoxicity in human HepG2.2.15 cells assessed as reduction in cell viability; type: toxicity, cell-based, HepG2 2.2.15
[3] = Stability in mouse plasma assessed as compound remaining incubated for 4 hrs; type: ADME, cell-free; conditions: read-out: Stability
[4] = Cytotoxicity in African green monkey Vero cells; type: toxicity, cell-based, Chlorocebus sabaeus
Hepatitis B virus [5] = assay: Antiviral activity against HBV in human HepG2 cells expressing NTCP assessed as reduction in viral replication; type: functional, organism-based
Hepatitis B virus [6] = assay: Antiviral activity against HBV in human HepaRG cells assessed as reduction in viral replication; type: functional, organism-based
[7] = Cytotoxicity in human HepaRG cells assessed as reduction in cell viability; type: toxicity, cell-based
[8] = Selectivity index, ratio of CC50 for cytotoxicity in human HepaRG cells assessed as reduction in cell viability to EC50 for antiviral activity against HBV in human HepaRG cells assessed as reduction in viral replication; type: toxicity, cell-based; conditions: read-out: Ratio CC50/EC50
[9] = AUC (0 to infinity) in male mouse at 5 mg/kg, iv; type: ADME, organism-based; conditions: in vivo
[10] = Clearance in male mouse at 5 mg/kg, iv; type: ADME, organism-based; conditions: in vivo
[11] = AUC (0 to infinity) in male mouse at 20 mg/kg, iv; type: ADME, organism-based; conditions: in vivo
[12] = Volume of distribution at steady state in male mouse at 20 mg/kg, iv; type: ADME, organism-based; conditions: in vivo, read-out: Vdss
[13] = Tmax in male mouse at 5 mg/kg, po; type: ADME, organism-based; conditions: in vivo
Hepatitis B virus [14] = assay: Antiviral activity against HBV infected in human HepG2 cells expressing NTCP assessed as viral DNA replication at 1 uM incubated for 6 days by Southern blot analysis (reference value: 100 %); type: functional; conditions: time 6 day
[15] = biological target: Core antigen (Hepatitis B virus) (UniProt Q03732); assay: Binding affinity to HBV core protein dimers extracted from Escherichia coli assessed as retention volume at peak of capsid assembly by size exclusion chromatography (reference value: 8.63 mL)
[16] = biological target: Core antigen (Hepatitis B virus) (UniProt Q03732); assay: Binding affinity to HBV core protein dimers extracted from Escherichia coli assessed as clump formation of assembled capsids by negative staining electron microscopic analysis

Sequence of Core antigen (Hepatitis B virus) (Q03732 as listed by the source): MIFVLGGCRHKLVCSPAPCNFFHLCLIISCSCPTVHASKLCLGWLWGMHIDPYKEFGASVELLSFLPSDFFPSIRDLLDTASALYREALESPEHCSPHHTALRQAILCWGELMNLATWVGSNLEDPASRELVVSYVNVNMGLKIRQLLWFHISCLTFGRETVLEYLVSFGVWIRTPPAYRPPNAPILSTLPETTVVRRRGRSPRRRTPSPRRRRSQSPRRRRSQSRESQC

Nc1cc(F)c(S(=O)(=O)NC2COC2)cc1C(=O)Nc1ccc(F)c(C(F)F)c1
EC50 (Hepatitis B virus [1]): 50 nM | CC50 [2]: > 900000 nM | remaining at 4 h [3]: 94.5% | IC50 [4]: > 100000 nM | EC50 (Hepatitis B virus [5]): 20 nM | EC50 (Hepatitis B virus [6]): 100 nM | CC50 [7]: > 100000 nM | selectivity ratio [8]: > 100 | AUC(0-inf) [9]: 900 ng·h/mL | clearance [10]: 92.7 mL/min/kg | AUC(0-inf) [11]: 5460 ng·h/mL | Vd [12]: 46.5 L/kg | Tmax [13]: 15 min | Activity (Hepatitis B virus [14]): 6% | Activity [15]: 8.62 mL | Activity [16]: Active
